Patent US20220402948A1, “EGFR INHIBITOR, COMPOSITION AND PREPARATION METHOD THEREFOR” (BETTA PHARMACEUTICALS CO., LTD., priority 2019, published 2022)

Assays:
EGFRΔ19del/T790M/C797S = EGFRΔ19del/T790M/C797S (Homo sapiens, UniProt P00533, T790M/C797S, form not given); test: EGFR Δ19del/T790M/C797S kinase test (mobility variation analysis, Caliper EZ Reader); assay type: biochemical; details: kinase enzymatic activity, Table 1
In short: (§1)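 Read-out is substrate-to-product conversion by mobility shift, stopped after incubation at room temperature with ATP and substrate, following a 10-minute room-temperature compound–enzyme pre-incubation. IC50 obtained by four-parameter variable-slope fitting of inhibition normalized between enzyme-free and uninhibited controls.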

EGFR WT = EGFR WT (Homo sapiens, UniProt P00533); test: EGFR WT kinase test (mobility variation analysis, Caliper EZ Reader); assay type: biochemical; details: kinase enzymatic activity, Table 1
EGFR WT, sequence (P00533 25-1210): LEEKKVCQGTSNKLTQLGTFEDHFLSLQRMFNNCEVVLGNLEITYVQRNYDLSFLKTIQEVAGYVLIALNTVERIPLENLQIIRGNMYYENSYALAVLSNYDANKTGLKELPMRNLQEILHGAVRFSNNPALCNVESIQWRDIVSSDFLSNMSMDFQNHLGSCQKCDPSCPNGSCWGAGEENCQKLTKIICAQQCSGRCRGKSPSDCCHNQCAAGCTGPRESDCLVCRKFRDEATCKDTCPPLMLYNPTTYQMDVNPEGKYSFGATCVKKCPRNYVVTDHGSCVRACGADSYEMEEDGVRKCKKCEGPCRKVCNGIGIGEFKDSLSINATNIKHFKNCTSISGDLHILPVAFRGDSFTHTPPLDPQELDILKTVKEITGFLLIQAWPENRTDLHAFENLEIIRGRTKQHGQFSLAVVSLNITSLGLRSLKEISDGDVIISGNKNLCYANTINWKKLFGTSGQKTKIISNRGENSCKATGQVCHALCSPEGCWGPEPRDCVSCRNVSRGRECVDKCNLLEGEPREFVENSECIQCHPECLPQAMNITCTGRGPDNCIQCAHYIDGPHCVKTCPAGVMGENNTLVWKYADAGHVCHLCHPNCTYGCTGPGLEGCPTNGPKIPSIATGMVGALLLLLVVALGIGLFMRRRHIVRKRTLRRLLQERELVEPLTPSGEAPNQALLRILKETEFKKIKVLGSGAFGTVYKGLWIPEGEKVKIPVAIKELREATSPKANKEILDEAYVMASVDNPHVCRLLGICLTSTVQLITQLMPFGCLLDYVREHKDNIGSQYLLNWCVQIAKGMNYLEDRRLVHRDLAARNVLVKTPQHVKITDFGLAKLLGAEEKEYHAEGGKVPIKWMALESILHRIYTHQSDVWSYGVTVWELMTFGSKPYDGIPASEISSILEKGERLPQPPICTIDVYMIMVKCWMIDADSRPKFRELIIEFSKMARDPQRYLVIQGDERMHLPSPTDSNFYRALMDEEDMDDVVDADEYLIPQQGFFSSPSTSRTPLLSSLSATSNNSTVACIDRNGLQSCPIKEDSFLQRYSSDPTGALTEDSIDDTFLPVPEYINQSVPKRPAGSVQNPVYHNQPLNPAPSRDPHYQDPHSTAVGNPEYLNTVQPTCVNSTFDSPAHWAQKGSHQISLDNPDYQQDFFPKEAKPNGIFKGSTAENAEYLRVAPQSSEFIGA
In short: as §1

IGF1R = IGF1R (Homo sapiens, UniProt P08069); test: IGF1R kinase test (mobility variation analysis, Caliper EZ Reader); assay type: biochemical; details: kinase enzymatic activity, Table 1; read-out: EGFR IGF1R IC50
In short: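 Mobility-shift readout of substrate conversion, normalised to positive (no compound) and negative (no kinase) controls, gives % inhibition and IC50 by four-parameter fit. Compounds, 3-fold dilutions over 10 concentrations starting at 3000 nM, preincubated 10 min with kinase before ATP/substrate start; room temperature.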

[1] = molecular target: Ba/F3 cells with EGFR Δ19del/T790M/C797S mutation gene stably overexpressed (Homo sapiens, UniProt P00533, T790M/C797S, cells depend on it, form not given); test: Ba/F3-Δ19del/T790M/C797S cell proliferation assay (CellTiter Glo, 72 hours); assay type: cell-based; details: Table 2, read-out: EGFR Δ19del/T790M/C797S IC50
Ba/F3 cells with EGFR Δ19del/T790M/C797S mutation gene stably overexpressed, sequence (P00533 with tags, fused parts or gaps DEL746-750/T790M/C797S, form open): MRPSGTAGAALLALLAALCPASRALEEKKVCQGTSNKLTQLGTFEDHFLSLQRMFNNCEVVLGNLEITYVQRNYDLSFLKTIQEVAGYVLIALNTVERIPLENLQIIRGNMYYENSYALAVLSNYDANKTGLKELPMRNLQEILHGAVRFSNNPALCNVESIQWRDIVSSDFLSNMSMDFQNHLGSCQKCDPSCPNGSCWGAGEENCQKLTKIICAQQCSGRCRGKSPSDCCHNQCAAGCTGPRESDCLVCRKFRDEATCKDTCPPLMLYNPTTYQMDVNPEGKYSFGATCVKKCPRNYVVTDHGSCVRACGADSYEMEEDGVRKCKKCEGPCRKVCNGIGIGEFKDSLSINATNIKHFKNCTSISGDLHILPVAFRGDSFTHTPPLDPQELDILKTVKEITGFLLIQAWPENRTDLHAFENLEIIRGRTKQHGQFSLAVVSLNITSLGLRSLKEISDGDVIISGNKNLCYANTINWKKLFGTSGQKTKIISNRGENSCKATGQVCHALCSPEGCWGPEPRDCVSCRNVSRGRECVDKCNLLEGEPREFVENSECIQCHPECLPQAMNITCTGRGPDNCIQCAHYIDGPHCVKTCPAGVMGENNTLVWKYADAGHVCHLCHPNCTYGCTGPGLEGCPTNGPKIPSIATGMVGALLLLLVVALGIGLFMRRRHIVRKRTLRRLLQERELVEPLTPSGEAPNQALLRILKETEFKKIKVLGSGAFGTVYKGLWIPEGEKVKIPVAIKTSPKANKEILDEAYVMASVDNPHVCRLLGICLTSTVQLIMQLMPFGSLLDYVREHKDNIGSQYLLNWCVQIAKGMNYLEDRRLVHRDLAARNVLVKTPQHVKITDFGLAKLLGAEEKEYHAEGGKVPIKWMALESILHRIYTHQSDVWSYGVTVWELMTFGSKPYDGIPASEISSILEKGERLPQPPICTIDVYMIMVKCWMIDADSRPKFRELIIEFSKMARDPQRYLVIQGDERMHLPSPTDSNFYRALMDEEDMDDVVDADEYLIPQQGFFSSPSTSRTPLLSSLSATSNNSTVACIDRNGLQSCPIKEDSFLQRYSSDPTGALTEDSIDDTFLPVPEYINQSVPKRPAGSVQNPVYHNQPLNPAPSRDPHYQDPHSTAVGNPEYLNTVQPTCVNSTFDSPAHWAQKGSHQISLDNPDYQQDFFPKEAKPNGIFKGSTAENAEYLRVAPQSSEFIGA
In short: (§2)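 Ba/F3 cells stably overexpressing wild-type EGFR or EGFR Δ19del/T790M/C797S were seeded at 2000 cells/well and incubated 72 h with compound. Viability was read by CellTiter-Glo luminescence, and IC50 came from a four-parameter logistic fit of signal against log concentration.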

[2] = molecular target: Ba/F3-EGFR wild-type cell line (Homo sapiens, UniProt P00533); test: Ba/F3-EGFR wild-type cell proliferation assay (CellTiter Glo, 72 hours); assay type: cell-based; details: Table 2, read-out: EGFR WT IC50
Ba/F3-EGFR wild-type cell line, sequence (P00533 whole entry, change not shown): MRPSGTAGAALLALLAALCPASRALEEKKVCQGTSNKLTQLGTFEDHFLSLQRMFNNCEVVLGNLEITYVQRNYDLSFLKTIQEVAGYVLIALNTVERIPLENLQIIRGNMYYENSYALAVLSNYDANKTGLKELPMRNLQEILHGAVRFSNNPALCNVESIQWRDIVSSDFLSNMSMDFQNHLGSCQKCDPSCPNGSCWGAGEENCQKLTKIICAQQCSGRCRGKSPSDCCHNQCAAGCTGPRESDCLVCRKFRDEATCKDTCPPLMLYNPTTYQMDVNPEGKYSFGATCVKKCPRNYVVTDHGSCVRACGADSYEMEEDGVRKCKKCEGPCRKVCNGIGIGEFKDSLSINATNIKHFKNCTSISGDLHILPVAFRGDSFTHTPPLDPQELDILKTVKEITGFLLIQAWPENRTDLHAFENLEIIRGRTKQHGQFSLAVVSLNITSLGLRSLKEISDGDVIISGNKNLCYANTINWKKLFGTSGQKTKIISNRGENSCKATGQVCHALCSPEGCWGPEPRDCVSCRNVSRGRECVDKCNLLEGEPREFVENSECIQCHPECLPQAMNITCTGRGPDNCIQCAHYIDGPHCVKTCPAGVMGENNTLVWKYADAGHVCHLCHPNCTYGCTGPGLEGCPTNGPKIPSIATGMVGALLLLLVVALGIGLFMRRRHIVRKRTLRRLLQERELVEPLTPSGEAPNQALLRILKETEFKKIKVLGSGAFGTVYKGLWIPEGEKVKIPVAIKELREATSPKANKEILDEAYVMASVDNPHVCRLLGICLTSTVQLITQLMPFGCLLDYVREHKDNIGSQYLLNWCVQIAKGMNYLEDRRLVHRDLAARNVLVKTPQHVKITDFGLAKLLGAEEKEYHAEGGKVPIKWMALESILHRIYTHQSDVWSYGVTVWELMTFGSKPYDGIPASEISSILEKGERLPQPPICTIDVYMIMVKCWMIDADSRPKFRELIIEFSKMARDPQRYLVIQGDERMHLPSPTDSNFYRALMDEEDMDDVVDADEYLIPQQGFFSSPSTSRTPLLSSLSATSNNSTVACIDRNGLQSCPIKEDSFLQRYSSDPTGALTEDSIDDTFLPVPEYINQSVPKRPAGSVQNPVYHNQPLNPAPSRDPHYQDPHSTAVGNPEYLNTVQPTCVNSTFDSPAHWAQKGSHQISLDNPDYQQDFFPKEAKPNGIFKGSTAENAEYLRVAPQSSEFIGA
In short: as §2

A431 = A431 cell proliferation assay (CellTiter Glo, 72 hours); assay type: cell-based; details: Homo sapiens, A-431, 72 h, cell proliferation, A431, 72 hours, Table 2; read-out: A431 IC50
In short: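 Luminescence (CellTiter-Glo) after 72 h treatment gives viability, fitted by nonlinear regression to yield IC50. Cells seeded at 2000 per well; nine 3-fold concentrations from 1000 nM, DMSO final 0.1% (0.5% for certain compounds).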

EGFRΔ19del/T790M/C797S, sequence (P00533 with tags, fused parts or gaps DEL746-750/T790M/C797S, form open): as the sequence (P00533 with tags, fused parts or gaps DEL746-750/T790M/C797S, form open) above

SMILES	IC50 (EGFRΔ19del/T790M/C797S)	IC50 (EGFR WT)	IC50 (IGF1R)	GI50 [1]	GI50 [2]	IC50 (A431)
COc1cnn(-c2ccc(Nc3nc(Nc4cc(OC)c(N5CCOCC5)cc4C4CC4)ncc3Br)c(P(C)(C)=O)c2)c1 [Compound K-026, (2-((5-Bromo-2-((2-cyclopropyl-5-methoxy-4-morpholinophenyl)amino)pyrimidin-4-yl)amino)-5-(4-methoxy-1H-pyrazol-1-yl)phenyl)dimethylphosphine oxide]	0.6 nM	188 nM	413 nM	17.3 nM	946 nM	> 10000 nM
COc1cc(N2CCOCC2)c(C#N)cc1Nc1ncc(Br)c(Nc2ccc(-c3nccs3)cc2P(C)(C)=O)n1 [Compound K-027, 5-((5-Bromo-4-((2-(dimethylphosphineoxide)-4-(thiazol-2-yl)phenyl)amino)pyrimidin-2-yl)amino)-4-methoxy-2-morpholinobenzonitrile]	0.6 nM	50.2 nM	364 nM	12.9 nM	453 nM	4050 nM
COc1cnn(-c2ccc(Nc3nc(Nc4cc(OC)c(N5CCN(C)CC5)cc4C)ncc3Br)c(P(C)(C)=O)c2)c1 [Compound K-028, (2-((5-Bromo-2-((5-methoxy-2-methyl-4-(4-methylpiperazin-1-yl)phenyl)amino)pyrimidin-4-yl)amino)-5-(4-methoxy-1H-pyrazol-1-yl)phenyl)-dimethylphosphine oxide]	0.1 nM	26 nM	39.1 nM	5.7 nM	226 nM	1240 nM
COc1cc(N2CCN(C)CC2)c(C)cc1Nc1ncc(Br)c(Nc2ccc(-c3nccs3)cc2P(C)(C)=O)n1 [Compound K-029, (2-((5-Bromo-2-((2-methoxy-5-methyl-4-(4-methylpiperazin-1-yl)phenyl)amino)pyrimidin-4-yl)amino)-5-(thiazol-2-yl)phenyl)dimethylphosphine oxide]	0.3 nM	60.6 nM	91 nM	15.2 nM	52.1 nM	3180 nM
COc1cc(Nc2ncc(Br)c(Nc3ccc(-c4cnn(C)c4)cc3P(C)(C)=O)n2)c(C)cc1N1CCOCC1 [Compound K-030, (2-((5-Bromo-2-((5-methoxy-2-methyl-4-morpholinophenyl)amino)pyrimidin-4-yl)amino)-5-(1-methyl-1H-pyrazol-4-yl)phenyl)dimethylphosphine oxide]	0.2 nM	7.8 nM	21.5 nM	3.6 nM	132 nM	615 nM
COc1cc(Nc2ncc(Br)c(Nc3ccc(-c4ccc(C)cn4)cc3P(C)(C)=O)n2)c(C)cc1N1CCOCC1 [Compound K-032, (2-((5-Bromo-2-((5-methoxy-2-methyl-4-morpholinophenyl)amino)pyrimidin-4-yl)amino)-5-(5-methylpyridin-2-yl)phenyl)dimethylphosphine oxide]	0.3 nM	55.2 nM	106 nM	4.8 nM	128 nM	1340 nM
COc1cc(Nc2ncc(Br)c(Nc3ccc(-c4cnc(C5CC5)cn4)cc3P(C)(C)=O)n2)c(C)cc1N1CCOCC1 [Compound K-033, (2-((5-Bromo-2-((5-methoxy-2-methyl-4-morpholinophenyl)amino)pyrimidin-4-yl)amino)-5-(5-cylopropylpyrazin-2-yl)phenyl)dimethylphosphine oxide]	0.3 nM	55.6 nM	121 nM	6.4 nM	63.5 nM	1590 nM
CCOc1cc(Nc2ncc(Br)c(Nc3ccc(-c4cnn(C)n4)c(F)c3P(C)(C)=O)n2)c(C)cc1N1CCOCC1 [Compound K-034, (6-((5-Bromo-2-((5-ethoxy-2-methyl-4-morpholinophenyl)amino)pyrimidin-4-yl)amino)-2-fluoro-3-(2-methyl-2H-1,2,3-triazol-4-yl)phenyl)dimethylphosphine oxide]	0.4 nM	64.4 nM	37.1 nM	20.9 nM	219 nM	1230 nM
CCOc1cc(Nc2ncc(Br)c(Nc3ccc(-c4ccc(C)cn4)cc3P(C)(C)=O)n2)c(C)cc1N1CCOCC1 [Compound K-035, (2-((5-Bromo-2-((5-ethoxy-2-methyl-4-morpholinophenyl)amino)pyrimidin-4-yl)amino)-5-(5-methylpyridin-2-yl)phenyl)dimethylphosphine oxide]	0.3 nM	42.8 nM	48.7 nM	18.6 nM	146 nM	1680 nM
COc1cc(Nc2ncc(Br)c(Nc3ccc(-c4cnn(C)n4)c(F)c3P(C)(C)=O)n2)c(C)cc1N1CC(C)OC(C)C1 (stereo not drawn) [Compound K-037, (6-((5-Bromo-2-((4-(2,6-dimethylmorpholine)-5-methoxy-2-methylphenyl)amino)pyrimidin-4-yl)amino)-2-fluoro-3-(2-methyl-2H-1,2,3-triazol-4-yl)phenyl)dimethylphosphine oxide]	0.8 nM	125 nM	251 nM	10.9 nM	374 nM	7530 nM
COc1cnn(-c2ccc(Nc3nc(Nc4cc(OC)c(N5CCC(N(C)C)CC5)cc4C)ncc3Br)c(P(C)(C)=O)c2)c1 [Compound K-038, (2-((5-Bromo-2-((4-(4-(dimethylamino)piperidin-1-yl)-5-methoxy-2-methylphenyl)amino)pyrimidine-4-yl)amino)-5-(4-methoxy-1H-pyrazol-1-yl)phenyl)dimethylphosphine oxide]	0.2 nM	19.2 nM	56.1 nM	15.4 nM	114 nM	1040 nM
COc1cnn(-c2ccc(Nc3nc(Nc4cc(OC)c(N5CCC(O)CC5)cc4C)ncc3Br)c(P(C)(C)=O)c2)c1 [Compound K-039, (2-((5-Bromo-2-((4-(4-hydroxypiperidin-1-yl)-5-methoxy-2-methylphenyl)amino)pyrimidin-4-yl)amino)-5-(4-methoxy-1H-pyrazol-1-yl)phenyl)dimethylphosphine oxide]	0.1 nM	14.3 nM	45.6 nM	27.5 nM	523 nM	> 10000 nM
CCc1cc(Nc2ncc(Br)c(Nc3ccc(-c4cnn(C)n4)cc3P(C)(C)=O)n2)c(OC)cc1N1CCC(N2CCOCC2)CC1 [Compound K-040, (2-((5-Bromo-2-((5-ethyl-2-methoxy-4-(4-morpholinopiperidin-1-yl)phenyl)amino)pyrimidin-4-yl)amino)-5-(2-methyl-2H-1,2,3-triazol-4-yl)phenyl)dimethylphosphine oxide]	0.3 nM	24.5 nM	134 nM	14.5 nM	302 nM	6630 nM
CCc1cc(Nc2ncc(Br)c(Nc3ccc(-c4cnn(C)c4)c(OC)c3P(C)(C)=O)n2)c(OC)cc1N1CCC(N2CCN(C)CC2)CC1 [Compound K-041, (6-((5-Bromo-2-((5-ethyl-2-methoxy-4-(4-(4-methylpiperazin-1-yl)piperidin-1-yl)phenyl)amino)pyrimidin-4-yl)amino)-2-methoxy-3-(1-methyl-1H-pyrazol-4-yl)phenyl)dimethylphosphine oxide]	0.4 nM	12.2 nM	14.7 nM	15.8 nM	147 nM	317 nM
CCc1cc(Nc2ncc(Br)c(Nc3ccc(-c4cnn(C)c4)cc3P(C)(C)=O)n2)c(OC)cc1N1CCC(N2CCOCC2)CC1 [Compound K-042, (2-((5-Bromo-2-((5-ethyl-2-methoxy-4-(4-morpholinopiperidin-1-vi)phenyl)amino)pyrimidin-4-yl)amino)-5-(1-methyl-1-pyrazol-4-yl)phenyl)-dimethylphosphine oxide]	0.4 nM	15.9 nM	71 nM	4.3 nM	206 nM	815 nM
CCCc1cc(Nc2ncc(Br)c(Nc3ccc(-c4cnn(C)c4)cc3P(C)(C)=O)n2)c(OC)cc1N1CCC(N2CCN(C)CC2)CC1 [Compound K-043, (2-((5-Bromo-2-((2-methoxy-4-(4-(4-methylpiperazin-1-yl)piperidin-1-yl)-5-propylphenyl)amino)pyrimidin-4-yl)amino)-5-(1-methyl-1H-pyrazol-4-yl)phenyl)dimethylphosphine oxide]	0.5 nM	14.2 nM	30.2 nM	4.3 nM	127 nM	456 nM
